Laboratory results as given in patent US8410165B2, “Aldehyde conjugated flavonoid preparations” (Agency for Science, Technology and Research, priority 2005, dated 2013).

Assays:
Format in all cases: biochemical
[1] = Superoxide anion scavenging activity (xanthine/XO, NBT reduction method); details: concentration needed to scavenge superoxide anion by 50%; EGCG moiety concentration for EGCG-containing samples, n = 3; read-out: Superoxide radical scavenging activity IC50
Procedure: Superoxide anion scavenging activity: Superoxide anion was generated using xanthine and xanthine oxidase (XO), and measured by the nitroblue tetrazolium (NBT) reduction method. A test sample was mixed in a buffer solution (pH 7.0) containing xanthine and NBT at 25° C. Measurement began with the addition of XO. […] All analyses were run in triplicate and the results were averaged. Superoxide scavenging activity was calculated according to the following formula: […] A mixture of xanthine and XO generates superoxide anion, which reduces nitroblue tetrazolium (NBT) to give the blue chromogen formazan and increases UV absorbance at 560 nm. Compounds capable of scavenging superoxide anion, such as superoxide dismutase (SOD), inhibit NBT reduction. […] Since compounds capable of scavenging superoxide anion can also affect NBT reduction, samples were investigated for their effects on these processes. […] Evaluation of scavenging activity against DPPH and superoxide anion provided direct evidence of the free radical scavenging potential of those compounds.

[2] = Diphenyl-picryl-hydrazyl (DPPH) scavenging activity; details: concentration needed to scavenge DPPH by 50%; EGCG moiety concentration for EGCG-containing samples, n = 3
Procedure: Diphenyl-picryl-hydrazyl scavenging activity: Different amounts of a sample were mixed with the chemically stable free radical 1,1-diphenyl-2-picryl-hydrazyl (DPPH) solution and absorbance at 519 nm was continuously recorded for 30 min at 25° C. using a UV-visible spectrophotometer (JASCO V-510 UV/VIS/NIR spectrometer, Japan). All analyses were run in triplicate and the results were averaged.
Diphenyl-picryl-hydrazyl scavenging activity and Superoxide anion scavenging activity: The 1,1-diphenyl-2-picryl-hydrazyl radical (DPPH) assay, which measures hydrogen atom donating activity, provides an evaluation of antioxidant activity due to free radical scavenging. DPPH, a purple-coloured stable free radical, is reduced into the yellow-coloured diphenylpicry hydrazine, as the radical is scavenged by antioxidants through donation of hydrogen. […] The DPPH scavenging activity of samples was expressed by IC50 (the concentration needed to scavenge DPPH by 50%), as shown in Table 4. […] These activities were also much higher than those of commercial antioxidants, vitamin C and dibutylhydroxytoluen (BHT).

[3] = target: T1, Xanthine oxidase (XO) (Bos taurus, UniProt P80457); assay: Xanthine oxidase inhibitory activity (uric acid formation at 295 nm); details: for XO inhibition activity: 10 μM of samples
T1 construct: purchased Sigma-Aldrich
Procedure: Xanthine oxidase inhibitory activity: The activity of XO was measured spectrophotometrically by monitoring the formation of uric acid at 295 nm for 30 min using a UV-visible spectrometer. The assay was carried out under the same conditions as the superoxide anion assay, and the percentage activity was calculated.

[4] = target: Urokinase (uPA) (Homo sapiens, UniProt P00749); assay: uPA inhibitory activity (SPECTROZYME UK); details: over a range of tested concentrations, EGCG-unit concentration (FIG. 8)
Procedure: uPA inhibitory activity: Various amounts of a sample were mixed with uPA in a buffer solution, and incubated for 15 min at 37° C. The mixture solution was added with SPECTROZYME™ and absorbance at 405 nm was recorded for 10 min using a microplate reader.

[5] = target: T2, Lysozyme from egg white (Gallus gallus, UniProt P00698); assay: Lysozyme activity upon complexation with OEGCG and recovery with Triton X-100
T2 construct: Lysozyme from egg white, Sigma Chemical; purchased Sigma Chemical; host or cells: egg white
Procedure: Lysozyme from egg white, Sigma Chemical. Activity of lysozyme was determined spectrophotometically at 450 nm by the decrease in turbidity over time due to the cleavage of glucosidic linkages of Micrococcus lysodeikticus. […] To start the reaction, 0.25 mg/mL of Micrococcus lysodeikticus was added to the solution.
(§1) Activity was measured according to the specified method for each protein.
(§2) Activity for all proteins is calculated with the following equation:
(§3) [formula] where ΔAbssample is the change in absorbance over time with the test compound and ΔAbscontrol is the change in absorbance over time without the test compound.

[6] = ABTS radical scavenging activity; details: dissociation (FIG. 27)
Procedure: Radical scavenging activity: ABTS^.+ was prepared by mixing a 7 mM ABTS stock solution with 2.45 mM potassium persulfate ((1/1, v/v). The decolorization reaction was initiated by adding ABTS^.+ to samples in a phosphate buffer and immediately measured at 734 nm using a UV-Vis spectrophotometer (Hitachi, Japan).

[7] = target: T3, α-Amylase from Apergillus oryzae (Aspergillus oryzae, UniProt P0C1B3); assay: α-Amylase activity upon complexation with OEGCG and recovery with Triton X-100
T3 construct: α-Amylase from Apergillus oryzae, Fluka; purchased Fluka; host or cells: Aspergillus oryzae
Procedure: α-Amylase from Apergillus oryzae, Fluka. Amylase activity was assayed with an activity kit from Molecular Probes (E-11954) using a fluorescence spectrophotometer with excitation wavelength at 505 nm and emission wavelength at 512 nm. […] Fluorescence was monitored over a period of 3 minutes.
as §1, §2, §3

[8] = target: T4, Xanthine Oxidase from buttermilk (Bos taurus, UniProt P80457); assay: Xanthine oxidase activity upon complexation with OEGCG and recovery with Triton X-100; details: highest OEGCG concentration
T4 construct: Xanthine Oxidase from buttermilk, Wako Chemical; purchased Wako Chemical; host or cells: buttermilk
Procedure: XO activity was measured by determining uric acid production in a UV-vis spectrophotometer at 295 nm. The increase in absorbance due to the conversion of xanthine to uric acid was followed for 3 minutes. […] Activity was measured according to the specified method for each protein. Activity for all proteins is calculated with the following equation: [formula] where ΔAbssample is the change in absorbance over time with the test compound and ΔAbscontrol is the change in absorbance over time without the test compound.

[9] = target: T5, Catalase from bovine liver (Bos taurus, UniProt P00432); assay: Catalase activity upon complexation with OEGCG and recovery with Triton X-100
T5 construct: Catalase from bovine liver, Sigma Chemical; purchased Sigma Chemical; host or cells: bovine liver
T5 sequence (P00432 2-527 limits assumed): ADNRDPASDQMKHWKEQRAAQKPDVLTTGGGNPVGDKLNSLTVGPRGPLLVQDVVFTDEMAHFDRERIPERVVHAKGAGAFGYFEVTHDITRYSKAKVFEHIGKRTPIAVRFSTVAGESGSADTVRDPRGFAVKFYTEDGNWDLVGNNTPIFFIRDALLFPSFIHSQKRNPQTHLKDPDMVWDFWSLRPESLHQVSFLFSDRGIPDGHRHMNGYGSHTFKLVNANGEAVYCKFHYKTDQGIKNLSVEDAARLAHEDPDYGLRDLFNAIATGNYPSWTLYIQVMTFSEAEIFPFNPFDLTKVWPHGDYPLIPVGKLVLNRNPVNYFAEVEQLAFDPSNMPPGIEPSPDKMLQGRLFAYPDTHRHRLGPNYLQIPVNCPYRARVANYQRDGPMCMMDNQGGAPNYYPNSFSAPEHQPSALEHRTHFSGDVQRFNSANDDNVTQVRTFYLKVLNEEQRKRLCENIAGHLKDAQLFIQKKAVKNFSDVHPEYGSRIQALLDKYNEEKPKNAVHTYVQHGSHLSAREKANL
Procedure: Catalase from bovine liver, Sigma Chemical. Catalase activity was measured by the disappearance of H2O2, followed at 240 nm in a UV-Vis spectrophotometer over a period of 200s. […] The reaction was started by adding 0.507 M H2O2 and mixing for 25 s.
as §1, §2, §3

[10] = addition of TX-100 after complexation with OEGCG

T1 sequence (P80457 2-1332 limits assumed): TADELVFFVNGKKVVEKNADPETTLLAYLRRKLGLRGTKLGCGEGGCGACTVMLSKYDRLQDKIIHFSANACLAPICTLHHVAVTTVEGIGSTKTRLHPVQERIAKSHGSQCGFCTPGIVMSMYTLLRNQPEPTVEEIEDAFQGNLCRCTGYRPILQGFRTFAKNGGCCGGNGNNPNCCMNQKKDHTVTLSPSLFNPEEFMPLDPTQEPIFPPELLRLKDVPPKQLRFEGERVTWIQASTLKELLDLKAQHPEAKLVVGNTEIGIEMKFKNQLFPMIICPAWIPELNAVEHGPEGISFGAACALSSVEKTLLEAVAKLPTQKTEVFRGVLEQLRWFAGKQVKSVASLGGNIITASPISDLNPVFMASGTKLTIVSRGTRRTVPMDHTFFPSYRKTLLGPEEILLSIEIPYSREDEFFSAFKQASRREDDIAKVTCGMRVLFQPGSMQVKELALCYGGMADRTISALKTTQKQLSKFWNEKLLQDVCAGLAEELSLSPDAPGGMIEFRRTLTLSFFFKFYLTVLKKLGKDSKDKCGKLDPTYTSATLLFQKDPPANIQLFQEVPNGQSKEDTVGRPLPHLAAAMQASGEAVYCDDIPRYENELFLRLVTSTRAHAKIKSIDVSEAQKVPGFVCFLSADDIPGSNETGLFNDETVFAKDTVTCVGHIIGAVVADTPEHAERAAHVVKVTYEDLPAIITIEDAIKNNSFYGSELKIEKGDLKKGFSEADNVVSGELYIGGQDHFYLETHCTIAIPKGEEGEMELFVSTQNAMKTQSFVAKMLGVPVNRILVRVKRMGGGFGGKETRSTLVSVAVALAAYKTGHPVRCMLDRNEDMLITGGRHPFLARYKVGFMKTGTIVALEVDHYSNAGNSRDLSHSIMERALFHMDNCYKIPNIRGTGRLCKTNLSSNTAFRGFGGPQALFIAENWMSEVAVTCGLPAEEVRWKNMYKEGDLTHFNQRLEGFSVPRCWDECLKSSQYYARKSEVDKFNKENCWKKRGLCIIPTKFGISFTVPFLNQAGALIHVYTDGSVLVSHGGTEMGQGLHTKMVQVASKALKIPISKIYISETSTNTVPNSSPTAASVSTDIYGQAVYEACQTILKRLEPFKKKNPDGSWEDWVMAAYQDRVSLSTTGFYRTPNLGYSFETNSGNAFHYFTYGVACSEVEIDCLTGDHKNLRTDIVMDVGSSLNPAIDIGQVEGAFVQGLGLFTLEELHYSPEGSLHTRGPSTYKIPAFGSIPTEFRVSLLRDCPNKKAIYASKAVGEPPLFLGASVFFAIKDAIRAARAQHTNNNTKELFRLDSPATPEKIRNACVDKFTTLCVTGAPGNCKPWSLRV
T2 sequence (P00698 19-147): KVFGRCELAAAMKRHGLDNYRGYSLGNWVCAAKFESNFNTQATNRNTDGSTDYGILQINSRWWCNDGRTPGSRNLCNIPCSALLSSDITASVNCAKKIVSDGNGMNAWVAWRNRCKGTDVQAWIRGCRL
T4 sequence (P80457 whole entry): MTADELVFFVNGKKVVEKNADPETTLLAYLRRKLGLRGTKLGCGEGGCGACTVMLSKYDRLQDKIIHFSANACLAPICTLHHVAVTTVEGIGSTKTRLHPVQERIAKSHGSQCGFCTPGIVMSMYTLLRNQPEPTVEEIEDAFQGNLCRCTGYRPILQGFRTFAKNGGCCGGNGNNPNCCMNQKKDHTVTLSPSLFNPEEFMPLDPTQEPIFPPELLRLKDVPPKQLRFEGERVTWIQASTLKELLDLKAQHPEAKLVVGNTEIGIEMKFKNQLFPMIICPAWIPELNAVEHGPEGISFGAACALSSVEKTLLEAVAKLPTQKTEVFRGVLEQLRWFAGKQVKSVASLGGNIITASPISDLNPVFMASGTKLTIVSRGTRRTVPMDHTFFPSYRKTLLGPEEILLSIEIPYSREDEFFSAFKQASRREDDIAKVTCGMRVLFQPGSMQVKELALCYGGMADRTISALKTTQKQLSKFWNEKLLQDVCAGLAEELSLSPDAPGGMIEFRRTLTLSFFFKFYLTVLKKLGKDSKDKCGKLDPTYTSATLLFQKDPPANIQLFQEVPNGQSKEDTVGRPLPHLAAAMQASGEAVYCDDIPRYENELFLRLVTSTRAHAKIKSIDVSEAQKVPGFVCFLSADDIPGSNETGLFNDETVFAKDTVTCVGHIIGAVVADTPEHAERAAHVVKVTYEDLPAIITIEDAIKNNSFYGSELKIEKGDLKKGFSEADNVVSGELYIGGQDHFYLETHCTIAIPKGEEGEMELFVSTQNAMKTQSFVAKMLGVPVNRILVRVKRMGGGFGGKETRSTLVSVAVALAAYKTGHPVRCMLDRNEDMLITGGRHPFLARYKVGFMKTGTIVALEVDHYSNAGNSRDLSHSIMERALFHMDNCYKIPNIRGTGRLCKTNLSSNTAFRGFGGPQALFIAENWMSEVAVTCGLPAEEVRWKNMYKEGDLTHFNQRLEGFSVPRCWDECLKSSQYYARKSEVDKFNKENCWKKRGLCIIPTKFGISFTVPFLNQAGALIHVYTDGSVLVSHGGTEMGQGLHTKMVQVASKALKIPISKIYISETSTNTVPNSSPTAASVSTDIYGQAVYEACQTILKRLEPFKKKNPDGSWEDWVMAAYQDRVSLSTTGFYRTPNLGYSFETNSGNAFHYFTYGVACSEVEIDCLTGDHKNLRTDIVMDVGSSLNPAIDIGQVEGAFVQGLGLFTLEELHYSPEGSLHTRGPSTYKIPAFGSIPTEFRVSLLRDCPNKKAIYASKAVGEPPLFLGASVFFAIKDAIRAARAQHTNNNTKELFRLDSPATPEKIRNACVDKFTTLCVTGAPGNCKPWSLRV

Row | Compound | IC50 [1] [µM] | IC50 [2] [µM] | XO inhibition activity [3] [%] | uPA inhibition activity [4] | other results
1 | Cc1cc(C(C)(C)C)c(O)c(C(C)(C)C)c1 [BHT, dibutylhydroxytoluen, reference compound] | > 250 | > 250 |  |  | 
2 | O=C1O[C@H]([C@@H](O)CO)C(O)=C1O [Vitamin C, reference compound] | 30.3 ± 0.3 | 44.7 ± 0.4 |  |  | 
3 | Oc1ncnc2[nH]ncc12 [allopurinol, reference compound] |  |  |  |  | inhibition at 10 µM ([3]; read-out: XO inhibition activity): 22.6%
4 | (−)-Epigallocatechin gallate [EGCG, reference compound] | 2.9 ± 0.3 | 7.3 ± 0.6 | 1.2 | very low uPA inhibition activity | XO inhibition ([3]; over the range of concentrations tested): less than 5%
5 | PEG-epigallocatechin gallate conjugate [PEG-EGCG] | 0.9 ± 0.1 | 6.2 ± 0.3 | 30.7 | higher inhibition activities | 
6 | PEG-oligomeric epigallocatechin gallate [PEG-OEGCG] | 0.4 ± 0.1 | 3.8 ± 0.8 | 100 | higher inhibition activities | 
7 | oligomeric epigallocatechin gallate [OEGCG] | 1.1 ± 0.2 | 4.9 ± 0.5 | 89.3 | higher inhibition activities | inhibition of lysozyme ([5]; above an OEGCG ratio of 2): All activity was suppressed; lysozyme activity restored, % of the initial protein activity [5, 10]: approximately 100%; ABTS radical scavenging activity upon complexation with proteins and dissociation [6]: suppressed by complexation with proteins was restored upon dissociation; maximum inhibition of α-amylase [7]: about 94%; initial α-amylase activity inhibition ([7]; OEGCG below a ratio of one): 70%; α-amylase activity restored, % of the initial protein activity [7, 10]: approximately 100%; decrease in α-amylase activity ([7]; five fold increase in OEGCG concentration from a ratio of 1 to 5): 20%; suppression of total XO activity [8]: 75%; further decrease of catalase activity ([9]; five fold increase in OEGCG concentration beyond OEGCG to protein ratio of 1): about 6%; inhibition of catalase ([9]; highest OEGCG to protein ratio): 30%
